Key:
11β-hsd-1 enzyme [1] = target: T1, 11β-hsd-1 enzyme (Homo sapiens, UniProt P28845); assay: biochemical
Description: The 11β-hsd-1 assay was performed in a 100 mM Triethanolamine buffer pH 8.0, containing 200 mM NaCl, 0.02% n-dodecyl β-D-maltoside, 5% glycerol, 5 mM β-mercaptoethanol. A typical reaction for the determination of Kiapp values was carried at R.T. in a Corning® u-bottom 96-well plate and is described as follows: 11β-hsd-1 enzyme (5 nM, final concentration) was pre-incubated in the presence of the inhibitor and NADPH (500 μM, final concentration) for at least 30 minutes in the assay buffer. When pre-incubation was completed, the reaction was initiated by adding the regenerating system (2 mM Glucose-6-Phosphate, 1U/mL Glucose-6-Phosphate dehydrogenase, and 6 mM MgCl2, all the concentration reported are final in the assay buffer), and 3H-cortisone (200 nM, final concentration). After 60 minutes, 60 μL of the assay mixture was transferred to a second 96-well plate and mixed with an equal volume of dimethylsulfoxide to stop the reaction. A 15 μL aliquot from the reaction mixture was loaded into a C-18 column (Polaris C18-A, 50×4.6 mm, 5 μ, 180 Angstrom from Varian) connected to an automated High-throughput Liquid Chromatography instrument developed by Cohesive Technologies Inc, of Franklin, Mass. USA, with a β-RAM model 3 Radio-HPLC detector from IN/US, of Tampa, Fla. USA. The substrate and product peaks were separated by using an isocratic mixture of 43:57 methanol to water (v/v) at a flow rate of 1.0 mL/min.
The initial reaction velocities were measured by stopping the reaction at 60 min and by measuring the area of product formation in the absence and the presence of various concentrations of inhibitors. The Kiapp values were determined using the equation for tight-binding inhibitor developed by Morrison, J. F. (Morrison J. F. Biochim BiophysActa. 1969; 185: 269-86).
The radiolabeled [1,2-3H]-cortisone is commercially available from American Radiolabeled Chemicals Inc of St. Louis, Mo. USA. NADPH, Glucose-6-Phosphate, and Glucose-6-Phosphate dehydrogenase were purchased from Sigma®.
(Morrison J. F. Biochim Biophys Acta. 1969; 185: 269-86).

11β-hsd-1 enzyme [2] = target: T1, 11β-hsd-1 enzyme; assay: biochemical; settings: read-out: % Inh @ 0.1 mM; for inhibition at 100 µM: Table 2, inhibitor 0.1 mM as printed
Outline: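 Human 11β-HSD-1 (5 nM) pre-incubated ≥30 min with inhibitor and 500 μM NADPH in triethanolamine buffer pH 8.0 with NaCl, n-dodecyl β-D-maltoside and β-ME; reaction started with G6P/G6PDH/MgCl2 regenerating system and 200 nM 3H-cortisone, run 60 min, stopped with DMSO. 3H-cortisol and substrate separated by radio-HPLC; percent inhibition from peak areas.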

T1 sequence (P28845 whole entry, species assumed): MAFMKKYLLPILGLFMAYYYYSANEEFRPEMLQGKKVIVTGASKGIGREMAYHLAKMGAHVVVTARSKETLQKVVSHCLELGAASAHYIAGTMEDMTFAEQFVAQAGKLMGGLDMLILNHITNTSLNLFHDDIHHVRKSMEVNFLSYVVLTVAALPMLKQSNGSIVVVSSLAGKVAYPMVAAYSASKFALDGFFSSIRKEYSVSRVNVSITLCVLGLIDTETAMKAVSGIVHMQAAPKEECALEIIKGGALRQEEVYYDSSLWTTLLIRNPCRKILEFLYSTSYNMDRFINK

Row | Ki (11β-hsd-1 enzyme [1]) [nM] | inhibition (11β-hsd-1 enzyme [2]) [%] | inhibition at 100 µM (11β-hsd-1 enzyme [2]) [%] | SMILES
1 | 52 | 77.1 |  | CCc1cccc(NS(=O)(=O)N2CCCC(OCc3ccccc3)C2)n1 (stereo not drawn) [Example 88, 3-(benzyloxy)-N-(6-ethylpyridin-2-yl)piperidine-1-sulfonamide]
2 | 1 | 100 |  | CCCC1CCN(S(=O)(=O)Nc2cccc(CC)n2)CC1 [Example 89, N-(6-ethylpyridin-2-yl)-4-propylpiperidine-1-sulfonamide]
3 | 18 | 90.9 |  | CCc1cccc(NS(=O)(=O)N2CCCC(c3ccccc3)CC2)n1 (stereo not drawn) [Example 90, N-(6-ethylpyridin-2-yl)-4-phenylazepane-1-sulfonamide]
4 | 45 | 75.9 |  | CCc1cccc(NS(=O)(=O)N2CCC(OCc3ccccc3)CC2)n1 [Example 91, 4-(benzyloxy)-N-(6-ethylpyridin-2-yl)piperidine-1-sulfonamide]
5 | 110 | 69.7 |  | CCc1cccc(NS(=O)(=O)N2CCCC(COC)CC2)n1 (stereo not drawn) [Example 93, N-(6-ethylpyridin-2-yl)-4-(methoxymethyl)azepane-1-sulfonamide]
6 | 82 | 86.2 |  | CCc1cccc(NS(=O)(=O)N2CCCC(COCC3CC3)CC2)n1 (stereo not drawn) [Example 95, 4-[(cyclopropylmethoxy)-methyl]-N-(6-ethylpyridin-2-yl)azepane-1-sulfonamide]
7 | 61 | 71.6 |  | CCc1cccc(NS(=O)(=O)N2CCCC(c3ccnc(N4CCCC4)n3)C2)n1 (stereo not drawn) [Example 96, N-(6-ethylpyridin-2-yl)-3-(2-pyrrolidin-1-ylpyrimidin-4-yl)piperidine-1-sulfanamide]
8 | 6.3 | 100 |  | O=S(=O)(Nc1ccc2ccccc2n1)N1CCCC(c2ccccc2)CC1 (stereo not drawn) [Example 97, 4-phenyl-N-quinolin-2-ylazepane-1-sulfonamide]
9 | 28 | 92.4 |  | O=S(=O)(Nc1ccc2ccccc2n1)N1CCCC(COCC2CC2)CC1 (stereo not drawn) [Example 98, 4-[(cyclapropylmethoxy)meth-yl]-N-quinolin-2-ylazepane-1-sulfonamide]
10 | 63 | 77.6 |  | COCC1CCCN(S(=O)(=O)Nc2ccc3ccccc3n2)CC1 (stereo not drawn) [Example 99, 4-(methoxymethyl)-N-quinolin-2-ylazepane-1-sulfonamide]
11 | 59 | 90.6 |  | O=S(=O)(Nc1ccc2ccccc2n1)N1CCOC(COc2cc(F)cc(F)c2)C1 (stereo not drawn) [Example 100, 2-[(35-difluorophenoxy)meth-yl]-N-quinolin-2-ylmorpholine-4-sulfonamide]
12 | 34 | 78.3 |  | CCc1cccc(NS(=O)(=O)N2CCCC(F)(F)C2)n1 [Example 101, N-(6-ethylpyridin-2-yl)-33-difluoropiperidine-1-sulfonamide]
13 | 5.4 |  | 100 | CCc1cccc(NS(=O)(=O)N2CCC(Cc3cc(F)ccc3C)CC2)n1 [Example 102, N-(6-ethylpyridin-2-yl)-4-(5-fluoro-2-methylbenzyl)piperidine-1-sulfonamide]
14 | 24 | 82.2 |  | CCCC1CCCCN1S(=O)(=O)Nc1cccc(CC)n1 (stereo not drawn) [Example 103, N-(6-ethylpyridin-2-yl)-2-propylpiperidine-1-sulfonamide]
15 | 6.9 | 100 |  | CCc1cccc(NS(=O)(=O)N2CCC(CCc3ccccc3)CC2)n1 [Example 104, N-(6-ethylpyridin-2-yl)-4-(2-phenylethyl)piperidine-1-sulfonamide]
16 | 8.2 | 90.1 |  | CCc1cccc(NS(=O)(=O)N2CCCCC2c2ccc(F)cc2)n1 (stereo not drawn) [Example 105, N-(6-ethylpyridin-2-yl)-2-(4-fluorophenyl)piperidine-1-sulfonamide]
17 | 7 | 100 |  | CCc1cccc(NS(=O)(=O)N2CCC(C(F)(F)F)CC2)n1 [Example 106, N-(6-ethylpyridin-2-yl)-4-(trifluoromethyl)piperidine-1-sulfonamide]
18 | 60 | 89 |  | CCc1cccc(NS(=O)(=O)N2CCC(C3CCN(C(=O)c4ccc(F)cc4)CC3)CC2)n1 [Example 108, N-(6-ethylpyridin-2-yl)-1′-(4-fluorobenzoyl)-44′-bipiperidine-1-sulfonamide]

Row | Ki (11β-hsd-1 enzyme [1]) [nM] | inhibition (11β-hsd-1 enzyme [2]) [%] | inhibition at 100 µM (11β-hsd-1 enzyme [2]) [%] | SMILES
19 | 18 | 100 |  | CCc1cccc(NS(=O)(=O)N2CCC(Oc3ccc(Cl)cc3)CC2)n1 [Example 112, 4-(4-chlorophenoxy)-N-(6-ethylpyridin-2-yl)pipendine-1-sulfonamide]
20 | 16 | 89.2 |  | CCc1cccc(NS(=O)(=O)N2CCC(c3ccccc3F)CC2)n1 [Example 113, N-(6-ethylpyridin-2-yl)-4-(2-fluorophenyl)piperidine-1-sulfonamide]
21 | 15 | 97.4 |  | CCc1cccc(NS(=O)(=O)N2CCCC(COc3ccccc3F)C2)n1 (stereo not drawn) [Example 114, N-(6-ethylpyridin-2-yl)-3-[(2-fluorophenoxy)methyl]piperi-dine-1-sulfonamide]
22 | 18 | 100 |  | CCc1cccc(NS(=O)(=O)N2CCC(Cc3ccccc3)CC2)n1 [Example 116, 4-benzyl-N-(6-ethylpyridin-2-yl)piperidine-1-sulfonamide]
23 | 45 | 65.2 |  | CCc1cccc(NS(=O)(=O)N2CCC(C)CC2)n1 [Example 117, N-(6-ethylpyridin-2-yl)-4-methylpiperidine-1-sulfonamide]
24 | 59 | 73.6 |  | CCc1cccc(NS(=O)(=O)N2CCCC(C)C2)n1 (stereo not drawn) [Example 118, N-(6-ethylpyridin-2-yl)-3-methylpiperidine-1-sulfonamide]
25 | 37 | 93.1 |  | CCc1cccc(NS(=O)(=O)N2CCC(c3ccccc3OC)CC2)n1 [Example 119, N-(6-ethylpyridin-2-yl)-4-(2-methoxyphenyl)pipendine-1-sulfonamide]
26 | 3.5 | 100 |  | CCc1cccc(NS(=O)(=O)N2CCC(c3ccccc3)CC2)n1 [Example 121, N-(6-ethylpyridin-2-yl)-4-phenylpiperidine-1-sulfanamide]
27 | 11 | 91.7 |  | CCc1cccc(NS(=O)(=O)N2CCC(c3cccc(O)c3)CC2)n1 [Example 122, N-(6-ethylpyridin-2-yl)-4-(3-hydroxyphenyl)piperidine-1-sulfonamide]
28 | 22 | 100 |  | CCc1cccc(NS(=O)(=O)N2CCC(Oc3ccccc3)CC2)n1 [Example 123, N-(6-ethylpyridin-2-yl)-4-phenoxypiperidine-1-sulfanamide]
29 | 7 |  | 88.4 | CCc1cccc(NS(=O)(=O)N2CCC(Cc3ccc(F)cc3)CC2)n1 [Example 124, N-(6-ethylpyridin-2-yl)-4-(4-fluorobenzyl)pipendine-1-sulfonamide]
30 | 28.5 | 75.1 |  | Cc1cccc(NS(=O)(=O)N2CCN(c3ncccn3)CC2)n1 [Example 125, N-(6-methylpyridin-2-yl)-4-pyrimidin-2-ylpiperazine-1-sulfonamide]
31 | 25 | 91.8 |  | Cc1cccc(NS(=O)(=O)N2CCCCCCC2)n1 [Example 127, N-(6-methylpyridin-2-yl)azocane-1-sulfonamide]
32 | 13 | 100 |  | Cc1cccc(NS(=O)(=O)N2CCN(c3ncc(C(F)(F)F)cc3Cl)CC2)n1 [Example 128, 4-[3-chloro-5-(trifluoromethyl)pyridin-2-yl]-N-(6-methylpyridin-2-yl)piperazine-1-sulfonamide]
33 | 28 | 86.6 |  | CCOC(=O)N1CCN(S(=O)(=O)Nc2cccc(C)n2)CC1 [Example 129, ethyl 4-{[(6-methylpyridin-2-yl)amino]sulfonyl}piperazine-1-carboxylate]
34 | 29 | 93.2 |  | Cc1cccc(NS(=O)(=O)N2CCN(c3cccc(C)n3)CC2)n1 [Example 131, N4-bis(6-methylpyridin-2-yl)piperazine-1-sulfonamide]
35 | 46 | 74.8 |  | Cc1cccc(NS(=O)(=O)N2CCN(c3ncccc3C#N)CC2)n1 [Example 132, 4-(3-cyanopyridin-2-yl)-N-(6-methylpyridin-2-yl)piperazine-1-sulfonamide]
36 | 330 | 71 |  | Cc1cccc(NS(=O)(=O)N2CCCN(c3ncccn3)CC2)n1 [Example 133, N-(6-methylpyridin-2-yl)-4-pyrimidin-2-yl-14-diazepane-1-sulfonamide]

— US20070027118A1 (priority 2005, published 2007)
